Reference: patent US20260216294A1, “BETA 2-ADRENERGIC RECEPTOR AGONISTS FOR TREATMENT OR PREVENTION OF MUSCLE WASTING” (ATROGI AB, priority 2023, published 2026)

Key:
L6-myotubes [1] = assay: Glucose uptake in differentiated L6-myotubes (Biological Example 2); assay type: cell-based; details: for Emax at 10 µM: read-out: Biological example 2 (GU)
Procedure: (§1) Compounds described in publications referenced and incorporated herein were screened in accordance with the procedures outlined in Biological example 2 and Biological example 3.
Differentiated L6-myotubes were serum-starved overnight in medium containing 0.5% fatty-acid free BSA and stimulated with isoprenaline or the test compound, with a final concentration of 1×10^−5 M. After 1 h 40 min the cells were washed with warm glucose free medium or PBS twice and another portion of agonist was added to the glucose free medium. After 20 min the cells were exposed to 50 nM ^3H-2-deoxyglucose for 10 min before washed with ice cold glucose free medium or PBS three times and lysed with 0.2 M NaOH, 400 μL/well, for 1 h at 60° C. The cell lysate was mixed with 4 mL scintillation buffer (Emulsifier Safe, Perkin Elmer) and the radioactivity was detected in a […] (Tri-Carb 4810TR, Perkin Elmer).

L6-myotubes [2] = assay: Measurement of intracellular cAMP levels in differentiated L6-myotubes (Biological Example 3); assay type: cell-based; details: for Emax at 10 µM: 0.25 h
Procedure: as §1
Differentiated L6-myotubes were serum-starved overnight and stimulated with isoprenaline or the test compound with a final concentration of 1×10^−5 M, for 15 min in stimulation buffer (HBSS supplemented with 1% BSA, 5 mM HEPES and 1 mM IBMX, pH 7.4). The medium was aspirated and 100 μL of 95% EtOH was added to each well of the 24-well plate and cells were kept at −20° C. overnight. The EtOH was allowed to evaporate and 500 μL of lysis buffer (1% BSA, 5 mM HEPES and 0.3% Tween-20, pH 7.4) was added to each well. The plate was kept at −80° C. for 30 min and then at −20° C. until the day of detection when the samples were thawed. Intracellular cAMP levels were detected using an alpha screen cAMP kit (6760635D from Perkin Elmer).

[3] = glucose uptake in differentiated L6-myotubes, compound at 10 μM, activity relative to isoproterenol at 10 μM
[4] = intracellular cAMP in differentiated L6-myotubes, compound at 10 μM, activity relative to isoproterenol at 10 μM
[5] = glucose uptake, compound at 10 μM relative to isoproterenol at 10 μM
[6] = intracellular cAMP, compound at 10 μM relative to isoproterenol at 10 μM

SMILES: CC(C)(C[C@H]1CC[C@H](NS(C)(=O)=O)CC1)NC[C@@H](O)c1cccc(C#N)n1 [Compound 428, 6-[(R)-2-{1,1-dimethyl-2-[(1r,4R)-4-(mesylamino)cyclohexyl]ethylamino}-1-hydroxyethyl]-2-pyridinecarbonitrile]
- Emax at 10 µM (L6-myotubes [1]; [3]): < 25%
- Emax at 10 µM (L6-myotubes [2]; [4]): < 25%

SMILES: CCC[C@H](C)NC[C@H](O)c1cccc(F)c1 [Compound 51]
- Emax at 10 µM (L6-myotubes [1]; [5]): > 75%
- Emax at 10 µM (L6-myotubes [2]; [6]): < 25%

SMILES: CCCCNC[C@H](O)c1cccc(F)c1F [Compound 77, (R)-2-(butylamino)-1-(2,3-difluorophenyl)-1-ethanol]
- Emax at 10 µM (L6-myotubes [1]; [5]): > 75%
- Emax at 10 µM (L6-myotubes [2]; [6]): < 25%

SMILES: CC12CC(C1)[C@H]([C@H](O)c1cccc(N)c1F)N2 [Compound 241, (R)-{(R)-1-methyl-2-azabicyclo[2.1.1]hex-3-yl}(3-amino-2-fluorophenyl)methanol]
- Emax at 10 µM (L6-myotubes [1]; [3]): > 75%
- Emax at 10 µM (L6-myotubes [2]; [4]): < 25%

SMILES: CCCC(C)NCC(O)c1cc(Cl)c(O)c(Cl)c1 (centres unmarked) [Compound 25, 1-(3,5-dichloro-4-hydroxyphenyl)-2-(1-methylbutylamino)-1-ethanol]
- Emax at 10 µM (L6-myotubes [1]; [5]): < 25%
- Emax at 10 µM (L6-myotubes [2]; [6]): < 25%

SMILES: CC(=O)N[C@H]1CC[C@@H](C[C@@H]2CC[C@H]([C@@H](O)c3cccc(F)c3)N2)CC1 [Compound 483]
- Emax at 10 µM (L6-myotubes [1]; [3]): < 25%
- Emax at 10 µM (L6-myotubes [2]; [4]): < 25%

SMILES: CC(C)(C[C@H]1CC[C@H](NC(=O)C2CCC2)CC1)NC[C@H](O)c1cccc(F)c1 [Compound 431]
- Emax at 10 µM (L6-myotubes [1]; [3]): > 75%
- Emax at 10 µM (L6-myotubes [2]; [4]): 50 to 75%

SMILES: CC(C)(CC[C@H]1CC[C@@H](O)CC1)NC[C@H](O)c1ccccc1F [Compound 320, (R)-2-{1,1-dimethyl-3-[(1s,4R)-4-hydroxycyclohexyl]propylamino}-1-(o-fluorophenyl)-1-ethanol]
- Emax at 10 µM (L6-myotubes [1]; [3]): > 75%
- Emax at 10 µM (L6-myotubes [2]; [4]): 25 to 50%

SMILES: CC(C)(C)NC[C@H](O)c1ccc(O)cn1 [Compound 95, 6-[(S)-2-(tert-butylamino)-1-hydroxyethyl]-3-pyridinol]
- Emax at 10 µM (L6-myotubes [1]; [5]): 50 to 75%
- Emax at 10 µM (L6-myotubes [2]; [6]): < 25%

SMILES: CC(=O)N(C)[C@H]1CC[C@@H](CC(C)(C)NC[C@H](O)c2cncc(F)c2)CC1 [Compound 507]
- Biological example 2 (GU) (L6-myotubes [1]; [3]): ++ (if it is between 75 and 50% it is denoted with ++)
- Emax at 10 µM (L6-myotubes [2]; [4]): < 25%

SMILES: CC(=O)N[C@H]1CC[C@H](CC(C)(C)NC[C@@H](O)c2cccc(C#N)n2)CC1 [Compound 427]
- Emax at 10 µM (L6-myotubes [1]; [3]): < 25%
- Emax at 10 µM (L6-myotubes [2]; [4]): < 25%

SMILES: CC(C)(CC[C@H]1CC[C@@H](C(=O)O)CC1)NC[C@H](O)c1cncc(F)c1 [Compound 347, (1S,4s)-4-{3-[(R)-2-(5-fluoro-3-pyridyl)-2-hydroxyethylamino]-3-methylbutyl} cyclohexanecarboxylic acid]
- Emax at 10 µM (L6-myotubes [1]; [3]): > 75%
- Emax at 10 µM (L6-myotubes [2]; [4]): < 25%

SMILES: CCC[C@@H]1CCC[C@@H]([C@H](O)c2cccc(Cl)c2)N1 [Compound 115]
- Emax at 10 µM (L6-myotubes [1]; [5]): > 75%
- Emax at 10 µM (L6-myotubes [2]; [6]): < 25%

SMILES: CC1(C)C[C@@H]([C@@H](O)c2ccccc2F)N1 [Compound 205, (S)-[(S)-4,4-dimethyl-2-azetidinyl](o-fluorophenyl)methanol]
- Emax at 10 µM (L6-myotubes [1]; [3]): 25 to 50%
- Emax at 10 µM (L6-myotubes [2]; [4]): < 25%

SMILES: CC(C)(NC[C@H](O)c1cncc(F)c1)[C@H]1CC[C@H](N)CC1 [Compound 344]
- Emax at 10 µM (L6-myotubes [1]; [3]): < 25%
- Emax at 10 µM (L6-myotubes [2]; [4]): < 25%

SMILES: CS(=O)(=O)N(Cc1ccccc1)[C@H]1CC[C@@H](C[C@@H]2CC[C@H]([C@@H](O)c3cccc(F)c3)N2)CC1 [Compound 509, (S)-[(2R,5S)-5-({(1s,4R)-4-[(benzyl)-N-mesylamino]cyclohexyl}methyl)-2-pyrrolidinyl](m-fluorophenyl)methanol]
- Emax at 10 µM (L6-myotubes [1]; [3]): < 25%
- Emax at 10 µM (L6-myotubes [2]; [4]): < 25%

SMILES: O[C@@H](c1ccccc1F)C12CCC(CCc3cccnc3)(CC1)N2 [Compound 444, (R)-(o-fluorophenyl){4-[2-(3-pyridyl)ethyl]-7-azabicyclo[[2.2.1]]hept-1-yl}methanol]
- Biological example 2 (GU) (L6-myotubes [1]; [3]): +++ (If a compound at 10 μM shows activity of more than 75% of that of isoproterenol at 10 μM, the activity is denoted with +++)
- Emax at 10 µM (L6-myotubes [2]; [4]): 50 to 75%

SMILES: COc1ccc(C[C@H]2CC[C@H]([C@@H](O)c3cccc(F)c3)N2)cc1 [Compound 375, (S)-{(2R,5R)-5-[(p-methoxyphenyl)methyl]-2-pyrrolidinyl}(m-fluorophenyl)methanol]
- Emax at 10 µM (L6-myotubes [1]; [3]): > 75%
- Emax at 10 µM (L6-myotubes [2]; [4]): < 25%

SMILES: CC(C)(C[C@H]1CC[C@H](NC(=O)C(C)(C)C)CC1)NC[C@H](O)c1cccc(F)c1 [Compound 429]
- Emax at 10 µM (L6-myotubes [1]; [3]): > 75%
- Emax at 10 µM (L6-myotubes [2]; [4]): 25 to 50%

SMILES: CC1(C)CCC[C@H]([C@@H](O)c2cccc(F)c2)N1 [Compound 101]
- Emax at 10 µM (L6-myotubes [1]; [5]): 25 to 50%
- Emax at 10 µM (L6-myotubes [2]; [6]): < 25%

SMILES: CC12CCC([C@H](O)c3ccccc3F)(CC1)N2 [Compound 181, (R)-(o-fluorophenyl)(4-methyl-7-azabicyclo[[2.2.1]]hept-1-yl)methanol]
- Emax at 10 µM (L6-myotubes [1]; [5]): > 75%
- Emax at 10 µM (L6-myotubes [2]; [6]): < 25%

SMILES: CCCCNCC(O)c1cc[nH]c(=O)c1 (centres unmarked) [Compound 62, 4-[2-(butylamino)-1-hydroxyethyl]-2(1H)-pyridinone]
- Emax at 10 µM (L6-myotubes [1]; [5]): 25 to 50%
- Emax at 10 µM (L6-myotubes [2]; [6]): < 25%

SMILES: CC12CCC([C@H](O)c3ccncc3F)(CC1)N2 [Compound 254, (R)-(3-fluoro-4-pyridyl)(4-methyl-7-azabicyclo[[2.2.1]]hept-1-yl)methanol]
- Emax at 10 µM (L6-myotubes [1]; [3]): < 25%
- Emax at 10 µM (L6-myotubes [2]; [4]): < 25%

SMILES: COC(=O)[C@H]1CC[C@@H](C(C)(C)NC[C@H](O)c2cccc(F)c2)CC1 [Compound 328, (1S,4s)-8-[(R)-2-(m-fluorophenyl)-2-hydroxyethylamino]-7-methoxy-p-menthan-7-one]
- Emax at 10 µM (L6-myotubes [1]; [3]): > 75%
- Emax at 10 µM (L6-myotubes [2]; [4]): < 25%

SMILES: CC(C)(NC[C@H](O)c1cccc(F)c1)[C@H]1CC[C@@H](OCC(=O)O)CC1 [Compound 408]
- Emax at 10 µM (L6-myotubes [1]; [3]): 50 to 75%
- Emax at 10 µM (L6-myotubes [2]; [4]): < 25%

SMILES: CC1(C)CC[C@H]([C@@H](O)c2cccc(N)c2F)N1 [Compound 226, (S)-[(R)-5,5-dimethyl-2-pyrrolidinyl](3-amino-2-fluorophenyl)methanol]
- Emax at 10 µM (L6-myotubes [1]; [3]): 25 to 50%
- Emax at 10 µM (L6-myotubes [2]; [4]): < 25%

SMILES: CS(=O)(=O)N[C@H]1CC[C@H](C[C@@H]2CC[C@H]([C@H](O)c3cccc(F)c3)N2)CC1 [Compound 504]
- Emax at 10 µM (L6-myotubes [1]; [3]): 50 to 75%
- Emax at 10 µM (L6-myotubes [2]; [4]): < 25%

SMILES: Cc1ncccc1[C@@H](O)CNC(C)(C)C[C@H]1CC[C@@H](NS(C)(=O)=O)CC1 [Compound 437, (R)-2-{1,1-dimethyl-2-[(1s,4S)-4-(mesylamino)cyclohexyl]ethylamino}-1-(2-methyl-3-pyridyl)-1-ethanol]
- Emax at 10 µM (L6-myotubes [1]; [3]): 25 to 50%
- Emax at 10 µM (L6-myotubes [2]; [4]): < 25%

SMILES: CO[C@H]1CC[C@H](C[C@H]2CC[C@H]([C@H](O)c3cccc(F)c3)N2)CC1 [Compound 335]
- Emax at 10 µM (L6-myotubes [1]; [3]): > 75%
- Emax at 10 µM (L6-myotubes [2]; [4]): < 25%

SMILES: CCCC(C)NCC(O)c1ccc(Cl)c(O)c1 (centres unmarked) [Compound 35, 1-(4-chloro-3-hydroxyphenyl)-2-(1-methylbutylamino)-1-ethanol]
- Emax at 10 µM (L6-myotubes [1]; [5]): > 75%
- Emax at 10 µM (L6-myotubes [2]; [6]): < 25%

SMILES: CO[C@H]1CC[C@H](CCC23CCC([C@@H](O)c4cccc(F)c4)(CC2)N3)CC1 [Compound 410]
- Biological example 2 (GU) (L6-myotubes [1]; [3]): ++ (if it is between 75 and 50% it is denoted with ++)
- Biological example 3 (CAMP) (L6-myotubes [2]; [4]): − (if it less than 25% it is denoted with −)
